Tested on: tissue of the dorsomedial prefrontal cortex (dmPFC) of the brain 110
Assay: Raman spectroscopy of brain tissue during ex-vivo perfusion with rapamycin in the perfusate
Type: in vitro ADME, human
Conditions: ex-vivo perfused brain
Text: As previously discussed, the perfusion system 100 also includes a Raman spectroscopy probe 172 that is coupled to or positioned near the brain housing 102 for performing Raman spectroscopy on the tissue of the brain 110 in real-time during perfusion of the brain 110. Once the brain 110 is fluidly coupled to the organ line 144 and is positioned inside the brain housing 102, the Raman spectroscopy probe 172 is positioned on the surface of the brain 110 and can be operated periodically throughout the perfusion process to perform Raman spectroscopy on the tissue of the brain 110 in real-time as the brain is perfused. […]
The data generated by the Raman spectroscopy probe 172 can be used to determine whether the pharmaceutical compound is capable of crossing the blood-brain barrier. The pharmaceutical compound can be determined as capable of crossing the blood-brain barrier in response to detecting that one or more chemical compounds corresponding to the pharmaceutical compound are present in the tissue of the brain 110 using the Raman spectroscopy probe 172. In addition, the percentage of the pharmaceutical compound taken up and metabolized by the brain 110 can be determined based on the concentration of one or more chemical compounds corresponding to the pharmaceutical compound that is detected in the tissue of the brain 110 by the Raman spectroscopy probe 172. […]

ability to cross the blood-brain barrier of the brain (rapamycin added to perfusate by syringe pump, Raman spectroscopy of dmPFC tissue (FIG. 6)): able to cross the blood-brain barrier
SMILES: CO[C@H]1C[C@@H]2CC[C@@H](C)[C@@](O)(O2)C(=O)C(=O)N2CCCC[C@H]2C(=O)O[C@H]([C@H](C)C[C@@H]2CC[C@@H](O)[C@H](OC)C2)CC(=O)[C@H](C)/C=C(\C)[C@@H](O)[C@@H](OC)C(=O)[C@H](C)C[C@H](C)/C=C/C=C/C=C/1C [rapamycin]
concentration of rapamycin present in the brain (Raman spectroscopy of dmPFC tissue over time (FIG. 6)): continually increased until a stable concentration 604 was reached

Reference: US20250280821A1, “PERFUSION AND METABOLIC RESTORATION OF ORGANS” (Bexorg, Inc., priority 2024, published 2025)
